The text below walks through data of patent US10202326B2, “Polyprenylated phloroglucinol compounds as potent P-glycoprotein inducers” (COUNCIL OF SCIENTIFIC & INDUSTRIAL RESEARCH, priority 2014, dated 2019).

SMILES strings stand for the structures. Like-named read-outs stand apart in the source and are kept apart here.

A short description of one series: in vitro. As to conditions: human.
For a further series, the system named is P-glycoprotein (Pgp). Kind of series: Pgp-induction assay, rhodamine123 (Rh123) cell exclusion method in LS180 cells. The class given is cell-based. The note with it: for EC50: 48 h treatment, Rh123 fluorescence; for Pgp induction activity compared to parent natural product: 1b, 1g versus garcinol (1a), 2b versus isogarcinol (2a). The procedure:
All synthesized compounds were screened for their ability to induce Pgp by using rhodamine123 (Rh123) cell exclusion method. In this method, the Pgp function was evaluated in terms of rhodamine 123 (Rh123) accumulations and efflux. Briefly, the protocol used is as follows: Colorectal LS180 cells Colorectal LS-180 cells [obtained from ECACC (European Collection of Cell Cultures) catalogue number: 87021202; passage number 52] were seeded at a density of 2×10^4 per well of 96 well plate and were allowed to grow for next 24 h. Cells were further incubated with the test compounds, and were diluted to a final concentration of 100 nM and rifampicin (standard) to a final concentration of 10 μM in complete media for 48 h. The final concentration of DMSO was kept at 0.1%. Drugs were removed and cells were incubated with HANKS buffer for 40 minutes before further incubation with HANKS buffer (containing 10 μM of Rh123 as a Pgp substrate) for 90 minutes. At the end of Rh123 treatment cells were washed four times with cold PBS followed by cell lysis for 1 h by using 200 μl of lysis buffer (0.1% Triton X-100 and 0.2 N NaOH). A total of 100 μl of lysate was used for reading fluorescence of Rh123 at 485 nm/529 nm. Samples were normalized by dividing fluorescence of each sample with total protein present in the lysate. […] For EC50 determination, different concentrations of compound were used to treat LS180 cells for 48 h. EC50 was determined by plotting fluorescence of Rh123 against concentration of compound.

A short description of series [1]: Cytotoxicity in LS-180 cells using MTT assay. The note with it: human.
Experimental: (§1) Compounds proposed in present invention were evaluated for their cytotoxic effect in LS-180 cells using MTT assay. In each well of a 96-well plate, 3×10^3 cells were grown in 100 μL of medium. After 24 h, each test molecules were added to achieve a final concentration of 10 to 0.01 μmol/L, respectively. After 48 h of treatment, 20 μL of 2.5 mg/mL MTT solution in phosphate buffer saline was added to each well. After 48 h, supernatant was removed and formazan crystals were dissolved in 200 μL of DMSO. Absorbance was then measured at 570 nm using an absorbance plate reader. Data are expressed as the percentage of viable cells in treated relative to non-treated conditions.
The mark [2] stands for this setting: LS-180 cells, read-out: Pgp induction EC50.
Where [3] appears, read: LS180 cells, values in text, read-out: EC50 for p-glycoprotein induction activity.

Experimental for in vitro: as §1

`C=C(C)[C@@H](CC=C(C)C)C[C@@]12C[C@@H](CC=C(C)C)C(C)(C)[C@@](CC=C(C)C)(C(=O)C(C(=O)c3ccc(O)c(O)c3)=C1O)C2=O` [Compound 1a, Garcinol, reference compound]: the concentration for half-maximal inhibition (IC50) (in general, the midpoint of a concentration-inhibition curve) at 48 h in “in vitro” came to 20000 nM. The concentration for a half-maximal effect (EC50) – broadly, the concentration that produces a half-maximal response – in the series on P-glycoprotein (Pgp) (setting [2]) came to 12 nM.
Take `C=C(C)C(CC=C(C)C)CC12CC(CC=C(C)C)C(C)(C)C(CC=C(C)C)(C(=O)C(C(=O)c3ccc(OC(=O)CCC)c(OC(=O)CCC)c3)=C1O)C2=O` (centres unmarked) [Compound 1b, 3′,4′-Di-(O-Butanoyl)-Garcinol]: the concentration for a half-maximal effect (EC50) in the series with P-glycoprotein (Pgp) (setting [3]) amounted to 8.9 nM. For the same compound, the “Pgp induction activity compared to parent natural product” value with P-glycoprotein (Pgp) (LS180 cells) was “better”.
For `C=C(C)C(CC=C(C)C)CC12CC(CC=C(C)C)C(C)(C)C(CC=C(C)C)(C(=O)C(C(=O)c3ccc(OCc4ccccc4[N+](=O)[O-])c(OCc4ccccc4[N+](=O)[O-])c3)=C1O)C2=O` (centres unmarked) [Compound 1g, 3′,4′-di-[O-(2″-nitro-benzyl)]-garcinol], in series [1], the IC50 at 48 h is greater than 100000 nM. Further, the EC50 with P-glycoprotein (Pgp) (setting [3]) was 6.8 nM.
With `CC(C)=CC[C@H]1C[C@@]23C[C@@H](CC=C(C)C)C(C)(C)[C@@](CC=C(C)C)(C(=O)C(C(=O)c4ccc(O)c(O)c4)=C2OC1(C)C)C3=O` [Compound 2a, Isogarcinol, reference compound], the IC50 at 48 h in series [1] is 11000 nM. Besides, in the series with P-glycoprotein (Pgp) (setting [2]), the half-maximal effective concentration (EC50) was 7 nM.
`CC(C)=CCOc1ccc(C(=O)C2=C3OC(C)(C)C(CC=C(C)C)CC34CC(CC=C(C)C)C(C)(C)C(CC=C(C)C)(C2=O)C4=O)cc1OCC=C(C)C` (centres unmarked) [Compound 2b, 3′,4′-di-(O-prenyl)-isogarcinol] returned an IC50 at 48 h in series [1] of 40000 nM. Besides, the EC50 in the series with P-glycoprotein (Pgp) (setting [3]) is 2.9 nM. Also, the “Pgp induction activity compared to parent natural product” value in the series on P-glycoprotein (Pgp) (LS180 cells) is reported as “better”.
